In ChEMBL document CHEMBL1275577, “Study of the in vitro activities of rifaximin and comparator agents against 536 anaerobic intestinal bacteria from the perspective of potential utility in pathology involving bowel flora” (Antimicrob Agents Chemother, 2009):
≈ marks a conversion by molar mass, not a printed value.

Assays:
Type in all cases: functional
[1] = test system: Parabacteroides distasonis; assay: Antimicrobial activity against Parabacteroides distasonis by Wadsworth agar dilution method
Bacteroides fragilis = assay: Antimicrobial activity against Bacteroides fragilis by Wadsworth agar dilution method
[2] = test system: Parabacteroides goldsteinii; assay: Antimicrobial activity against Parabacteroides goldsteinii by Wadsworth agar dilution method
Bacteroides stercoris = assay: Antimicrobial activity against Bacteroides stercoris by Wadsworth agar dilution method
Bilophila wadsworthia = assay: Antimicrobial activity against Bilophila wadsworthia by Wadsworth agar dilution method in presence of 1% pyruvic acid
Desulfovibrio piger = assay: Antimicrobial activity against Desulfovibrio piger by Wadsworth agar dilution method
Desulfovibrio sp. = assay: Antimicrobial activity against Desulfovibrio sp. by Wadsworth agar dilution method
Fusobacterium mortiferum [3] = assay: Antimicrobial activity against Fusobacterium mortiferum by Wadsworth agar dilution method in presence of beta-lactamase inhibitor Sulbactam
Porphyromonas = assay: Antimicrobial activity against Porphyromonas sp. by Wadsworth agar dilution method
[4] = test system: Porphyromonas asaccharolytica; assay: Antimicrobial activity against Porphyromonas asaccharolyticus by Wadsworth agar dilution method
Porphyromonas somerae = assay: Antimicrobial activity against Porphyromonas somerae by Wadsworth agar dilution method
Porphyromonas uenonis = assay: Antimicrobial activity against Porphyromonas uenonis by Wadsworth agar dilution method
Prevotella corporis = assay: Antimicrobial activity against Prevotella corporis by Wadsworth agar dilution method
[Clostridium] innocuum = Antimicrobial activity against Clostridium innocuum by Wadsworth agar dilution method
[5] = test system: Clostridium acetobutylicum; assay: Antimicrobial activity against Clostridium acetobutylicum by Wadsworth agar dilution method
Clostridium bartlettii = assay: Antimicrobial activity against Clostridium bartlettii by Wadsworth agar dilution method; details: Intestinibacter bartlettii
Clostridium beijerinckii = assay: Antimicrobial activity against Clostridium beijerinckii by Wadsworth agar dilution method
Clostridium bolteae = assay: Antimicrobial activity against Clostridium bolteae by Wadsworth agar dilution method; details: Enterocloster bolteae
Clostridium cocleatum = assay: Antimicrobial activity against Clostridium cocleatum by Wadsworth agar dilution method; details: Thomasclavelia cocleata
Clostridium fallax = assay: Antimicrobial activity against Clostridium fallax by Wadsworth agar dilution method
Clostridium glycolicum = assay: Antimicrobial activity against Clostridium glycolicum by Wadsworth agar dilution method; details: Terrisporobacter glycolicus
Clostridium nexile = assay: Antimicrobial activity against Clostridium nexile by Wadsworth agar dilution method; details: Faecalimonas nexilis
[6] = test system: Clostridium paraputrificum; assay: Antimicrobial activity against Clostridium paraputrificum by Wadsworth agar dilution method
Thomasclavelia ramosa = assay: Antimicrobial activity against Clostridium ramosum by Wadsworth agar dilution method
Fusobacterium mortiferum [7] = assay: Antimicrobial activity against Clostridium rectum by Wadsworth agar dilution method
[8] = test system: Paeniclostridium sordellii; assay: Antimicrobial activity against Clostridium sordellii by Wadsworth agar dilution method; details: Paraclostridium sordellii
Clostridium spiroforme = assay: Antimicrobial activity against Clostridium spiroforme by Wadsworth agar dilution method; details: Thomasclavelia spiroformis
Clostridium sporogenes = assay: Antimicrobial activity against Clostridium sporogenes by Wadsworth agar dilution method
Schaalia odontolytica = assay: Antimicrobial activity against Actinomyces odontolyticus by Wadsworth agar dilution method
Actinomyces viscosus = assay: Antimicrobial activity against Actinomyces viscosus by Wadsworth agar dilution method
Bifidobacterium bifidum = assay: Antimicrobial activity against Bifidobacterium bifidum by Wadsworth agar dilution method
Bifidobacterium breve = assay: Antimicrobial activity against Bifidobacterium breve by Wadsworth agar dilution method
Bifidobacterium longum = assay: Antimicrobial activity against Bifidobacterium longum by Wadsworth agar dilution method
[9] = Antimicrobial activity against Bifidobacterium pseudocatenulatum by Wadsworth agar dilution method
[10] = test system: Catenibacterium mitsuokai; assay: Antimicrobial activity against Catenibacterium mitsuokai by Wadsworth agar dilution method
[11] = test system: Pseudoramibacter alactolyticus; assay: Antimicrobial activity against Eubacterium alactolyticum by Wadsworth agar dilution method
Eubacterium callanderi = assay: Antimicrobial activity against Eubacterium callanderi by Wadsworth agar dilution method
[12] = test system: Lactobacillus catenaformis; assay: Antimicrobial activity against Lactobacillus catenaformis by Wadsworth agar dilution method; details: Eggerthia catenaformis
[13] = test system: Limosilactobacillus fermentum; assay: Antimicrobial activity against Lactobacillus fermentum by Wadsworth agar dilution method
Lactobacillus sp. = assay: Antimicrobial activity against Lactobacillus sp. by Wadsworth agar dilution method
Propionibacterium avidum = assay: Antimicrobial activity against Propionibacterium avidum by Wadsworth agar dilution method; details: Cutibacterium avidum
Anaerococcus prevotii = assay: Antimicrobial activity against Anaerococcus prevotii by Wadsworth agar dilution method
Finegoldia magna = assay: Antimicrobial activity against Finegoldia magna by Wadsworth agar dilution method
[14] = test system: Ruminococcus flavefaciens; assay: Antimicrobial activity against Ruminococcus flavefaciens by Wadsworth agar dilution method
Ruminococcus gnavus = assay: Antimicrobial activity against Ruminococcus gnavus by Wadsworth agar dilution method; details: Mediterraneibacter gnavus
Ruminococcus obeum = assay: Antimicrobial activity against Ruminococcus obeum by Wadsworth agar dilution method; details: Blautia obeum
Ruminococcus torques = assay: Antimicrobial activity against Ruminococcus torques by Wadsworth agar dilution method; details: Mediterraneibacter torques

In the case of NC[C@@H]1O[C@H](O[C@H]2[C@@H](O)[C@H](O[C@@H]3[C@@H](O)[C@H](N)C[C@H](N)[C@H]3O[C@H]3O[C@H](CN)[C@@H](O)[C@H](O)[C@H]3N)O[C@@H]2CO)[C@H](N)[C@@H](O)[C@@H]1O [FRAMYCETIN], the MIC50 [1] is reported as 1020 µg/mL (≈ 1670 µM), the MIC90 [1] is reported as over 1020 µg/mL and the MIC50 (Bacteroides fragilis) is reported as over 1020 µg/mL. It also gave an MIC90 (Bacteroides fragilis) of over 1020 µg/mL, an MIC50 [2] of 1020 µg/mL (≈ 1670 µM) and an MIC90 [2] of over 1020 µg/mL. It also gave an MIC50 (Bacteroides stercoris) of over 1020 µg/mL, an MIC90 (Bacteroides stercoris) of over 1020 µg/mL and an MIC50 (Bilophila wadsworthia) of over 1020 µg/mL. It also gave an MIC90 (Bilophila wadsworthia) of over 1020 µg/mL, an MIC50 (Desulfovibrio piger) of 256 µg/mL (≈ 416 µM) and an MIC90 (Desulfovibrio piger) of 1020 µg/mL (≈ 1670 µM). The MIC50 (Desulfovibrio sp.) was 256 µg/mL (≈ 416 µM), the MIC90 (Desulfovibrio sp.) was 1020 µg/mL (≈ 1670 µM) and the MIC50 (Fusobacterium mortiferum [3]) was 512 µg/mL. For the same compound, the MIC90 (Fusobacterium mortiferum [3]) was over 1020 µg/mL, the MIC50 (Porphyromonas) was 512 µg/mL (≈ 833 µM) and the MIC90 (Porphyromonas) was over 1020 µg/mL. For the same compound, the MIC50 [4] was 512 µg/mL (≈ 833 µM), the MIC90 [4] was over 1020 µg/mL and the MIC50 (Porphyromonas somerae) was 512 µg/mL (≈ 833 µM). The MIC90 (Porphyromonas somerae) was over 1020 µg/mL, the MIC50 (Porphyromonas uenonis) was 512 µg/mL (≈ 833 µM) and the MIC90 (Porphyromonas uenonis) was over 1020 µg/mL. It also gave an MIC50 (Prevotella corporis) of 512 µg/mL (≈ 833 µM), an MIC90 (Prevotella corporis) of 1020 µg/mL (≈ 1670 µM) and an MIC50 ([Clostridium] innocuum) of over 1020 µg/mL. For the same compound, the MIC90 ([Clostridium] innocuum) was over 1020 µg/mL, the MIC50 [5] was 256 µg/mL (≈ 416 µM) and the MIC90 [5] was 1020 µg/mL (≈ 1670 µM). For the same compound, the MIC50 (Clostridium bartlettii) was 256 µg/mL (≈ 416 µM), the MIC90 (Clostridium bartlettii) was 1020 µg/mL (≈ 1670 µM) and the MIC50 (Clostridium beijerinckii) was 256 µg/mL (≈ 416 µM). For the same compound, the MIC90 (Clostridium beijerinckii) was 1020 µg/mL (≈ 1670 µM), the MIC50 (Clostridium bolteae) was 256 µg/mL (≈ 416 µM) and the MIC90 (Clostridium bolteae) was 1020 µg/mL (≈ 1670 µM). The MIC50 (Clostridium cocleatum) was 256 µg/mL (≈ 416 µM), the MIC90 (Clostridium cocleatum) was 1020 µg/mL (≈ 1670 µM) and the MIC50 (Clostridium fallax) was 256 µg/mL (≈ 416 µM). For the same compound, the MIC90 (Clostridium fallax) was 1020 µg/mL (≈ 1670 µM), the MIC50 (Clostridium glycolicum) was 256 µg/mL (≈ 416 µM) and the MIC90 (Clostridium glycolicum) was 1020 µg/mL (≈ 1670 µM). For the same compound, the MIC50 (Clostridium nexile) was 256 µg/mL (≈ 416 µM), the MIC90 (Clostridium nexile) was 1020 µg/mL (≈ 1670 µM) and the MIC50 [6] was 256 µg/mL (≈ 416 µM). For the same compound, the MIC90 [6] was 1020 µg/mL (≈ 1670 µM), the MIC50 (Thomasclavelia ramosa) was 256 µg/mL (≈ 416 µM) and the MIC90 (Thomasclavelia ramosa) was 1020 µg/mL (≈ 1670 µM). The MIC50 (Fusobacterium mortiferum [7]) was 256 µg/mL (≈ 416 µM), the MIC90 (Fusobacterium mortiferum [7]) was 1020 µg/mL (≈ 1670 µM) and the MIC50 [8] was 256 µg/mL (≈ 416 µM). For the same compound, the MIC90 [8] was 1020 µg/mL (≈ 1670 µM), the MIC50 (Clostridium spiroforme) was 256 µg/mL (≈ 416 µM) and the MIC90 (Clostridium spiroforme) was 1020 µg/mL (≈ 1670 µM). The MIC50 (Clostridium sporogenes) was 256 µg/mL (≈ 416 µM), the MIC90 (Clostridium sporogenes) was 1020 µg/mL (≈ 1670 µM) and the MIC50 (Schaalia odontolytica) was 128 µg/mL (≈ 208 µM). For the same compound, the MIC90 (Schaalia odontolytica) was 1020 µg/mL (≈ 1670 µM), the MIC50 (Actinomyces viscosus) was 128 µg/mL (≈ 208 µM) and the MIC90 (Actinomyces viscosus) was 1020 µg/mL (≈ 1670 µM). It also gave an MIC50 (Bifidobacterium bifidum) of 128 µg/mL (≈ 208 µM), an MIC90 (Bifidobacterium bifidum) of 1020 µg/mL (≈ 1670 µM) and an MIC50 (Bifidobacterium breve) of 128 µg/mL (≈ 208 µM). It also gave an MIC90 (Bifidobacterium breve) of 1020 µg/mL (≈ 1670 µM), an MIC50 (Bifidobacterium longum) of 128 µg/mL (≈ 208 µM) and an MIC90 (Bifidobacterium longum) of 1020 µg/mL (≈ 1670 µM). It also gave an MIC50 [9] of 128 µg/mL (≈ 208 µM), an MIC90 [9] of 1020 µg/mL (≈ 1670 µM) and an MIC50 [10] of 128 µg/mL (≈ 208 µM). The MIC90 [10] was 1020 µg/mL (≈ 1670 µM), the MIC50 [11] was 128 µg/mL (≈ 208 µM) and the MIC90 [11] was 1020 µg/mL (≈ 1670 µM). For the same compound, the MIC50 (Eubacterium callanderi) was 128 µg/mL (≈ 208 µM), the MIC90 (Eubacterium callanderi) was 1020 µg/mL (≈ 1670 µM) and the MIC50 [12] was 128 µg/mL (≈ 208 µM). For the same compound, the MIC90 [12] was 1020 µg/mL (≈ 1670 µM), the MIC50 [13] was 128 µg/mL (≈ 208 µM) and the MIC90 [13] was 1020 µg/mL (≈ 1670 µM). For the same compound, the MIC50 (Lactobacillus sp.) was 128 µg/mL (≈ 208 µM), the MIC90 (Lactobacillus sp.) was 1020 µg/mL (≈ 1670 µM) and the MIC50 (Propionibacterium avidum) was 128 µg/mL (≈ 208 µM). For the same compound, the MIC90 (Propionibacterium avidum) was 1020 µg/mL (≈ 1670 µM), the MIC50 (Anaerococcus prevotii) was 128 µg/mL (≈ 208 µM) and the MIC90 (Anaerococcus prevotii) was 512 µg/mL (≈ 833 µM). It also gave an MIC50 (Finegoldia magna) of 128 µg/mL (≈ 208 µM), an MIC90 (Finegoldia magna) of 512 µg/mL (≈ 833 µM) and an MIC50 [14] of 128 µg/mL (≈ 208 µM). The MIC90 [14] was 512 µg/mL (≈ 833 µM), the MIC50 (Ruminococcus gnavus) was 128 µg/mL (≈ 208 µM) and the MIC90 (Ruminococcus gnavus) was 512 µg/mL (≈ 833 µM). The MIC50 (Ruminococcus obeum) was 128 µg/mL (≈ 208 µM), the MIC90 (Ruminococcus obeum) was 512 µg/mL (≈ 833 µM) and the MIC50 (Ruminococcus torques) was 128 µg/mL (≈ 208 µM). For the same compound, the MIC90 (Ruminococcus torques) was 512 µg/mL (≈ 833 µM).
